Measured values published in PubChem BioAssay AID264 (DTP/NCI, 2004).
Values joined by “and” are separate entries in the source; they are usually repeats but may differ in a detail not shown here. Identical values can stand only once. Results filed as inconclusive are left out.

System: nude mice, LX-1 lung xenograft intrarenal, tumor weight T/C
Experiment: NCI In Vivo Anticancer Drug Screen. Data for tumor model Human Lung LX-1 Xenograft (intrarenal inoculation) in NU/NU Swiss (nude) mice
Settings: endpoint: mean tumor weight change, higher = larger tumour
Description: The antitumor activity of compounds was measured in mice bearing transplantable tumors. Survival or tumor size were measured and the results are expressed as the measurement made in the treated group (T) divided by the measurement made in the vehicle treated control group (C). The tumor model used in this assay is Human Lung LX-1 Xenograft (intrarenal inoculation) in NU/NU Swiss (nude) mice

[1] = dose: 300.0 mg/kg/injection, schedule: Q04DX003 (sc), vehicle: Klucel (hydroxypropylcellulose) (HPC)
[2] = dose: 600.0 mg/kg/injection, schedule: Q04DX003 (sc), vehicle: Klucel (hydroxypropylcellulose) (HPC)
[3] = dose: 1200.0 mg/kg/injection, schedule: Q04DX003 (sc), vehicle: Klucel (hydroxypropylcellulose) (HPC)
[4] = dose: 2400.0 mg/kg/injection, schedule: Q04DX003 (sc), vehicle: Klucel (hydroxypropylcellulose) (HPC)
[5] = dose: 100.0 mg/kg/injection, schedule: Q01DX010 (sc), vehicle: Klucel (hydroxypropylcellulose) (HPC)
[6] = dose: 400.0 mg/kg/injection, schedule: Q01DX010 (sc), vehicle: Klucel (hydroxypropylcellulose) (HPC)
[7] = dose: 200.0 mg/kg/injection, schedule: Q04DX003 (sc), vehicle: saline with Tween-80
[8] = dose: 400.0 mg/kg/injection, schedule: Q04DX003 (sc), vehicle: saline with Tween-80
[9] = dose: 2400.0 mg/kg/injection, schedule: Q04DX003 (sc), vehicle: saline with Tween-80

`COC1OC(CO)C(O)C(NC(=O)N(C)N=O)C1O` (stereo not given) was tested, and the T/C (dose: 800.0 mg/kg/injection, schedule: Q04DX003 (sc), vehicle: saline) was 31 % of control and the T/C (dose: 900.0 mg/kg/injection, schedule: Q04DX003 (sc), vehicle: saline) was -100 % of control.

With `C[CH2][Ge]1([CH2]C)[CH2]CC2(CCN(CCCN(C)C)C2)C[CH2]1` the T/C (dose: 150.0 mg/kg/injection, schedule: Q04DX003 (sc), vehicle: saline) was 89 % of control.

For `COc1cc2cc(c1Cl)N(C)C(=O)CC(OC(=O)CC(C)C)C1(C)OC1C(C)C1CC(O)(NC(=O)O1)C(OC)/C=C/C=C(C)C2` (stereo not given), the T/C (dose: 12.5 micrograms/kg/injection, schedule: Q01DX010 (sc), vehicle: saline + alcohol) was 73 % of control, the T/C (dose: 25.0 micrograms/kg/injection, schedule: Q01DX010 (sc), vehicle: saline + alcohol) was 59 % of control and the T/C (dose: 50.0 micrograms/kg/injection, schedule: Q01DX010 (sc), vehicle: saline + alcohol) was 107 % of control.

With `COC1=C(NC(C)=O)C(=O)c2nc(-c3nc(C(=O)O)c(C)c(-c4ccc(OC)c(OC)c4O)c3N)ccc2C1=O` the T/C (dose: 25.0 mg/kg/injection, schedule: Q04DX003 (sc), vehicle: Klucel (hydroxypropylcellulose) (HPC)) was 63 % of control, the T/C (dose: 50.0 mg/kg/injection, schedule: Q04DX003 (sc), vehicle: Klucel (hydroxypropylcellulose) (HPC)) was 55 % of control and the T/C (dose: 100.0 mg/kg/injection, schedule: Q04DX003 (sc), vehicle: Klucel (hydroxypropylcellulose) (HPC)) was 40 % of control.

`CN(C)C(=O)SC1=C(c2c(Cl)cccc2Cl)C(=O)c2ccccc21` was tested, and the T/C [1] was 84 % of control, the T/C [2] was 106 % of control and the T/C [3] was 65 % of control. The T/C [4] was 92 % of control.

For `COC(=O)NC1C(C)OC(OC2C/C=C(/C)C3C=CC4C(OC5CC(OC6CCC(OC7CC(O)C(OC8CCC(O)C(C)O8)C(C)O7)C(C)O6)C(OC(C)=O)C(C)O5)C(C)CC(C)C4C3(C)/C(O)=C3/C(=O)OC4(CC(C=O)=CC(O)C4/C=C\2C)C3=O)CC1(C)[N+](=O)[O-]` (stereo not given), the T/C (dose: 12.5 mg/kg/injection, schedule: Q04DX003 (sc), vehicle: other) was 63 % of control, the T/C (dose: 25.0 mg/kg/injection, schedule: Q04DX003 (sc), vehicle: other) was 75 % of control and the T/C (dose: 50.0 mg/kg/injection, schedule: Q04DX003 (sc), vehicle: other) was 100 % of control. For the same molecule, the T/C (dose: 100.0 mg/kg/injection, schedule: Q04DX003 (sc), vehicle: other) was 93 % of control.

`COc1ccc(-c2cc(C(=O)Nc3cc(C(F)(F)F)cc(C(F)(F)F)c3)c3ccccc3n2)cc1` was tested, and the T/C (dose: 150.0 mg/kg/injection, schedule: Q04DX003 (ip), vehicle: DMSO) was 75 % of control, the T/C (dose: 300.0 mg/kg/injection, schedule: Q04DX003 (ip), vehicle: DMSO) was 104 % of control and the T/C (dose: 600.0 mg/kg/injection, schedule: Q04DX003 (ip), vehicle: DMSO) was 68 % of control.

`CC(C)[C@](O)(C(=O)OCC1=CC[N+]2([O-])CC[C@@H](O)[C@@H]12)[C@H](C)O` (stereo not given in full) was tested, and the T/C (dose: 50.0 mg/kg/injection, schedule: Q01DX010 (sc), vehicle: water) was 59 % of control, the T/C (dose: 100.0 mg/kg/injection, schedule: Q01DX010 (sc), vehicle: water) was 44 % of control and the T/C (dose: 200.0 mg/kg/injection, schedule: Q01DX010 (sc), vehicle: water) was 58 % of control. The T/C (dose: 400.0 mg/kg/injection, schedule: Q01DX010 (sc), vehicle: water) was 36 % of control.

`CC1(O)CC23CC(O)C4(O)C(CC(O)C4(C)C)C(C)(O)C2CCC1C3O` (stereo not given) was tested, and the T/C (dose: 0.25 mg/kg/injection, schedule: Q04DX003 (sc), vehicle: Klucel (hydroxypropylcellulose) (HPC)) was 78 % of control, the T/C (dose: 0.5 mg/kg/injection, schedule: Q04DX003 (sc), vehicle: Klucel (hydroxypropylcellulose) (HPC)) was 77 % of control and the T/C (dose: 1.0 mg/kg/injection, schedule: Q04DX003 (sc), vehicle: Klucel (hydroxypropylcellulose) (HPC)) was 58 % of control.

In the case of `O=c1ssc(=Nc2ccccc2)n1-c1ccccc1`, the T/C [5] is reported as 77 % of control and the T/C [6] is reported as 97 % of control.

For `Cc1ccc2c(c1)N=C(Nc1ccccc1)N=S2(C)=O` (stereo not given), the T/C (dose: 100.0 mg/kg/injection, schedule: Q04DX003 (sc), vehicle: saline with Tween-80) was 101 % of control, the T/C [7] was 90 % of control and the T/C [8] was 97 % of control.

With `CCCCCCOC(CN(C)C)C(Cl)(Cl)Cl` (stereo not given) the T/C [7] was 121 % of control, the T/C [8] was 95 % of control and the T/C (dose: 800.0 mg/kg/injection, schedule: Q04DX003 (sc), vehicle: saline with Tween-80) was 59 % of control. The T/C (dose: 1600.0 mg/kg/injection, schedule: Q04DX003 (sc), vehicle: saline with Tween-80) was 74 % of control.

`NS(=O)(=O)OCCCCCCCOS(N)(=O)=O` was tested, and the T/C (dose: 150.0 mg/kg/injection, schedule: Q04DX003 (ip), vehicle: saline with Tween-80) was 109 % of control and the T/C (dose: 300.0 mg/kg/injection, schedule: Q04DX003 (ip), vehicle: saline with Tween-80) was 123 % of control.

With `CSc1ncc2ncn(C3OC(CO)C(O)C3O)c2n1` (stereo not given) the T/C [1] was 61 % of control, the T/C [2] was 57 % of control and the T/C [3] was 56 % of control. For the same molecule, the T/C [4] was 53 % of control.

In the case of `COC1C(O)C(C)OC(OC2C(Oc3cccc4c(O)c5c(=O)oc6ccc(C)c7c(=O)oc(c34)c5c67)OC(C)C(O)C2O)C1O` (stereo not given), the T/C (dose: 50.0 mg/kg/injection, schedule: Q01DX010 (sc), vehicle: Klucel (hydroxypropylcellulose) (HPC)) is reported as 84 % of control, the T/C [5] is reported as 63 % of control and the T/C (dose: 200.0 mg/kg/injection, schedule: Q01DX010 (sc), vehicle: Klucel (hydroxypropylcellulose) (HPC)) is reported as 54 % of control. The T/C [6] was 58 % of control.

For `COC1/C=C/C=C(/C)Cc2cc(O)c(Cl)c(c2)N(C)C(=O)CC(OC(=O)C(C)C)C2(C)OC2C(C)C2CC1(O)NC(=O)O2` (stereo not given), the T/C (dose: 1.0 mg/kg/injection, schedule: Q04DX003 (sc), vehicle: saline + alcohol) was 81 % of control, the T/C (dose: 2.0 mg/kg/injection, schedule: Q04DX003 (sc), vehicle: saline + alcohol) was 67 % of control and the T/C (dose: 4.0 mg/kg/injection, schedule: Q04DX003 (sc), vehicle: saline + alcohol) was 58 % of control.

`N/C(=N\O)c1cn(C2OC(CO)C(O)C2O)c2ncnc(N)c12` (stereo not given) was tested, and the T/C (dose: 2.5 mg/kg/injection, schedule: Q04DX003 (sc), vehicle: Klucel (hydroxypropylcellulose) (HPC)) was 95 % of control, the T/C (dose: 5.0 mg/kg/injection, schedule: Q04DX003 (sc), vehicle: Klucel (hydroxypropylcellulose) (HPC)) was 99 % of control and the T/C (dose: 10.0 mg/kg/injection, schedule: Q04DX003 (sc), vehicle: Klucel (hydroxypropylcellulose) (HPC)) was 81 % of control. The T/C (dose: 20.0 mg/kg/injection, schedule: Q04DX003 (sc), vehicle: Klucel (hydroxypropylcellulose) (HPC)) was 44 % of control.

For `CN1CCN(Cc2nc3cccc4c3c([n+]2[O-])-c2ccccc2-4)CC1`, the T/C (dose: 12.5 mg/kg/injection, schedule: Q01DX010 (sc), vehicle: saline with Tween-80) was 83 % of control, the T/C (dose: 25.0 mg/kg/injection, schedule: Q01DX010 (sc), vehicle: saline with Tween-80) was 161 % of control and the T/C (dose: 50.0 mg/kg/injection, schedule: Q01DX010 (sc), vehicle: saline with Tween-80) was 180 % of control.

With `COc1cccc2c1C(=O)c1c(O)c3c(c(O)c1C2=O)C[C@@](O)(/C(C)=N/NC(=O)c1cccc([N+](=O)[O-])c1)C[C@@H]3OC1CC(N)C(O)C(C)O1` (stereo not given in full) the T/C (dose: 8.0 mg/kg/injection, schedule: Q01DX010 (sc), vehicle: water) was 68 % of control, the T/C (dose: 16.0 mg/kg/injection, schedule: Q01DX010 (sc), vehicle: water) was 78 % of control and the T/C (dose: 24.0 mg/kg/injection, schedule: Q04DX003 (sc), vehicle: water) was 54 % of control. For the same molecule, the T/C (dose: 48.0 mg/kg/injection, schedule: Q04DX003 (sc), vehicle: water) was 9 % of control and the T/C (dose: 96.0 mg/kg/injection, schedule: Q04DX003 (sc), vehicle: water) was 25 % of control.

In the case of `CC(=O)OC1C(O)C(C)OC(OC2C(OC(=O)C3CCC4C(C3)OC3(CC(OC(=O)/C=C/c5ccccc5)C(C)CO3)C43CO3)OC(C)C(O)C2OC(C)=O)C1O` (stereo not given), the T/C (dose: 15.0 mg/kg/injection, schedule: Q04DX003 (sc), vehicle: distilled water + Tween-80) is reported as 114 % of control, the T/C (dose: 30.0 mg/kg/injection, schedule: Q04DX003 (sc), vehicle: distilled water + Tween-80) is reported as 121 % of control and the T/C (dose: 60.0 mg/kg/injection, schedule: Q04DX003 (sc), vehicle: distilled water + Tween-80) is reported as 162 % of control.

With `CC(=O)Nc1ccc(O)c(O)c1` the T/C (dose: 300.0 mg/kg/injection, schedule: Q04DX003 (sc), vehicle: saline with Tween-80) was 154 % of control, the T/C (dose: 600.0 mg/kg/injection, schedule: Q04DX003 (sc), vehicle: saline with Tween-80) was 103 % of control and the T/C [9] was 51 % of control.

`N#CC(=C1C=CC(=NO)C=C1)c1ccc(Cl)cc1` was tested, and the T/C (dose: 150.0 mg/kg/injection, schedule: Q04DX003 (sc), vehicle: saline with Tween-80) was 173 % of control, the T/C (dose: 1200.0 mg/kg/injection, schedule: Q04DX003 (sc), vehicle: saline with Tween-80) was 175 % of control and 198 % of control and the T/C [9] was 180 % of control.
